Laboratory results taken from US11267806B2, “Indazole compound for use in inhibiting kinase activity, composition and application thereof” (Shenzhen TargetRx, Inc., priority 2017, dated 2022).

What was measured:
[1] = Liver microsomal metabolism assay, human; assay type: in vitro ADME; conditions: pH 7.4, human liver microsomes 0.5 mg/mL, compound 1 μM, 37° C.; for microsomal CLint at 1 μM: read-out: Human liver microsome assay CLint; for half-life at 1 μM: read-out: Human liver microsome assay t1/2
Method: (§1) (3) Liver Microsomal Metabolism Assay
(§2) […]; Coenzyme (NADPH/NADH): 1 mM, Sigma Life Science; Magnesium chloride: 5 mM, 100 mM phosphate buffer (pH 7.4).
(§3) Preparation of stock solutions: Powder of the compounds were accurately weighed and dissolved in DMSO to 5 mM.
(§4) Preparation of phosphate buffer (100 mM, pH7.4): A pre-prepared 0.5M potassium dihydrogen phosphate (150 mL) was mixed with 0.5M dibasic potassium phosphate (700 mL). The pH of the mixture was adjusted to 7.4 with 0.5M dibasic potassium phosphate solution. The mixture was diluted 5-fold with ultrapure water before use, and magnesium chloride was added to obtain a phosphate buffer (100 mM) containing 100 mM potassium phosphate, 3.3 mM magnesium chloride, pH 7.4.
(§5) A NADPH regeneration system solution (containing 6.5 mM NADP, 16.5 mM G-6-P, 3 U/mL G-6-P D, 3.3 mM magnesium chloride) was prepared and placed on wet ice prior to use.
(§6) Incubation of the samples: The stock solutions of the respective compounds were respectively diluted to 0.25 mM with an aqueous solution containing 70% acetonitrile, and used as a working solution, ready for use. 398 μL of the dilution of human liver microsomes or rat liver microsomes were added to 96-well incubation plates (N=2), respectively, and 2 μL of 0.25 mM working solution was added and mixed.
(§7) Metabolic stability assay: 300 μL of pre-chilled stop solution was added to each well of 96-well deep well plates and placed on ice as stop plates. The 96-well incubation plates and NADPH regeneration system were placed in a 37° C. water bath box, shaken at 100 rpm and pre-incubated for 5 min. 80 μL of incubation solution was taken out from each well of the incubation plates and added to the stop plates, mixed, and replenished with 20 μL of NADPH regeneration system solution as a 0-min sample. 80 μL of NADPH regeneration system solution was added to each well of the incubation plates to start the reaction and start counting. […] Separately, 100 μL of the reaction solutions was taken at 10, 30, and 90 min reaction, respectively, added to stop plates, and vortexed for 3 minutes to terminate the reaction. The stop plates were centrifuged at 5000×g at 4° C. for 10 min. 100 μL of the supernatant was added to a 96-well plate to which 100 μL of distilled water was previously added, mixed, and analyzed by LC-MS/MS.
(§8) Data analysis: The peak areas of the corresponding compounds and internal standard were detected by LC-MS/MS system, and the ratio of the peak area of the compounds to the internal standard was calculated.
(§9) The metabolic stability of the compounds in human and rat liver microsomes was evaluated by simultaneously testing and comparing the compounds disclosed herein and the non-deuterated compound. […]

[2] = Liver microsomal metabolism assay, rat; assay type: in vitro ADME; conditions: SD, pH 7.4, rat liver microsomes 0.5 mg/mL, compound 1 μM, 37° C.; for microsomal CLint at 1 μM: read-out: Rat liver microsome assay CLint; for half-life at 1 μM: read-out: Rat liver microsome assay t1/2
Method: as §1, §2, §3, §4, §5, §6, §7, §8, §9

[3] = tested on: Ba/F3 EML-ALK^L1196M cells; assay: Cytotoxicity assay (cell viability, CellTiter-Glo), Ba/F3 EML-ALK L1196M; assay type: cell-based; conditions: Mus musculus, BaF3, 72 h; cell viability, 3 days incubation; read-out: Ba/F3 EML-ALK^L1196M IC50
Ba/F3 EML-ALK cells = assay: Cytotoxicity assay (cell viability, CellTiter-Glo), Ba/F3 EML-ALK; assay type: cell-based; conditions: Mus musculus, BaF3, 72 h; cell viability, 3 days incubation; read-out: Ba/F3 EML-ALK IC50

Row | microsomal CLint at 1 μM [1] | half-life at 1 μM [1] | microsomal CLint at 1 μM [2] | half-life at 1 μM [2] | SMILES | IC50 [3] | IC50 (Ba/F3 EML-ALK cells)
1 | 48.2 µL/min/mg | 28.8 min | 31 µL/min/mg | 44.7 min | [2H]c1cc(C(=O)Nc2n[nH]c3ccc(Cc4cc(F)cc(F)c4)cc23)c(NC2CCOCC2)c([2H])c1N1CCN(C([2H])([2H])[2H])CC1 [Compound T-5, N-(5-(3,5-difluorobenzyl)-1H-indazol-3-yl)-4-(4-(methyl-d3)piperazin-1-yl)-2-((tetrahydro-2H-pyran-4-yl)amino)benzamide-3,5-d2] | > 200 nM | 50 to 150 nM
2 | 45 µL/min/mg | 30.8 min | 31 µL/min/mg | 44.6 min | [2H]C([2H])(c1cc(F)cc(F)c1)c1ccc2[nH]nc(NC(=O)c3ccc(N4CCN(C([2H])([2H])[2H])CC4)cc3NC3CCOCC3)c2c1 [Compound T-11, N-(5-((3,5-difluorophenyl)methyl-d2)-1H-indazol-3-yl)-4-(4-(methyl-d3)piperazin-1-yl)-2-((tetrahydro-2H-pyran-4-yl)amino)benzamide] | > 200 nM | 10 to 50 nM

The next lines start with the compound.

Row | SMILES | microsomal CLint at 1 μM [1] | half-life at 1 μM [1] | microsomal CLint at 1 μM [2] | half-life at 1 μM [2] | IC50 [3] | IC50 (Ba/F3 EML-ALK cells)
3 | [2H]c1cc(C(=O)Nc2n[nH]c3ccc(Cc4cc(F)cc(F)c4)cc23)c(NC2CCOCC2)c([2H])c1N1CCN(C)CC1 [Compound T-4, N-(5-(3,5-difluorobenzyl)-1H-indazol-3-yl)-4-(4-methylpiperazin-1-yl)-2-((tetrahydro-2H-pyran-4-yl)amino)benzamide-3,5-d] | 36.2 µL/min/mg | 38.3 min | 21.9 µL/min/mg | 63.3 min | > 200 nM | 50 to 150 nM
4 | [2H]c1cc(C(=O)Nc2n[nH]c3ccc(Cc4cc(F)cc(F)c4)cc23)c(NC2CCOCC2)c([2H])c1N1C([2H])([2H])C([2H])([2H])N(C([2H])([2H])[2H])C([2H])([2H])C1([2H])[2H] [Compound T-6, N-(5-(3,5-difluorobenzyl)-1H-indazol-3-yl)-4-(4-(methyl-d3)piperazin-1-yl-2,2,3,3,5,5,6,6-d8)-2-((tetrahydro-2H-pyran-4-yl)amino)benzamide-3,5-d2] | 42.5 µL/min/mg | 32.6 min | 29.7 µL/min/mg | 46.7 min | > 200 nM | 50 to 150 nM
5 | [2H]c1c(F)cc(Cc2ccc3[nH]nc(NC(=O)c4ccc(N5CCN(C)CC5)cc4NC4CCOCC4)c3c2)cc1F [Compound T-9] | 47.5 µL/min/mg | 29.2 min | 33.7 µL/min/mg | 41.1 min | > 200 nM | 50 to 150 nM
